Results reported in patent publication US20260262643A1, “HERBICIDAL BENZOXAZINES” (FMC CORPORATION, priority 2022, published 2026).

What was measured:
barnyardgrass [1] = assay: Test C preemergence; type: in vivo, Echinochloa crusgalli; conditions: 0 to 100 scale (0 no effect, 100 complete control); for Plant response rating, Barnyardgrass: Preemergence, 500 g ai/ha, visual rating after 10 days; for Barnyardgrass plant response rating: Test C, preemergence, 125 g ai/ha
Procedure, shortened: (§1)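 Test material, in non-phytotoxic solvent with surfactant, was sprayed on the soil directly after seeding (preemergence) or on young plants of 2–10 cm with one to two leaves (postemergence). Greenhouse, 10 days; 0–100 visual control scale.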

blackgrass [2] = assay: Test C preemergence; type: in vivo, Alopecurus myosuroides; conditions: 0 to 100 scale (0 no effect, 100 complete control); for Plant response rating, Blackgrass: Preemergence, 500 g ai/ha, visual rating after 10 days; for Blackgrass plant response rating: Test C, preemergence, 125 g ai/ha
Procedure, shortened: as §1

corn [3] = assay: Test C preemergence; type: in vivo, Zea mays; conditions: 0 to 100 scale (0 no effect, 100 complete control); for Plant response rating, Corn: Preemergence, 500 g ai/ha, visual rating after 10 days; for Corn plant response rating: Test C, preemergence, 125 g ai/ha
Procedure, shortened: as §1

green foxtail = assay: Test C preemergence; type: in vivo, Setaria viridis; conditions: 0 to 100 scale (0 no effect, 100 complete control); for Plant response rating, Foxtail, Green: Preemergence, 500 g ai/ha, visual rating after 10 days; for Foxtail, Green plant response rating: Test C, preemergence, 125 g ai/ha
Procedure, shortened: as §1

kochia [4] = assay: Test C preemergence; type: in vivo, Bassia scoparia; conditions: 0 to 100 scale (0 no effect, 100 complete control); for Plant response rating, Kochia: Preemergence, 500 g ai/ha, visual rating after 10 days; for Kochia plant response rating: Test C, preemergence, 125 g ai/ha
Procedure, shortened: as §1

oat, wild [5] = assay: Test C preemergence; type: in vivo, Avena fatua; conditions: 0 to 100 scale (0 no effect, 100 complete control); for Plant response rating, Oat, Wild: Preemergence, 500 g ai/ha, visual rating after 10 days; for Oat, Wild plant response rating: Test C, preemergence, 125 g ai/ha
Procedure, shortened: as §1

pigweed, palmer [6] = assay: Test C preemergence; type: in vivo, Amaranthus palmeri; conditions: 0 to 100 scale (0 no effect, 100 complete control); for Plant response rating, Pigweed, Palmer: Preemergence, 500 g ai/ha, visual rating after 10 days; for Pigweed, Palmer plant response rating: Test C, preemergence, 125 g ai/ha
Procedure, shortened: as §1

ragweed [7] = assay: Test C preemergence; type: in vivo, Ambrosia artemisiifolia; conditions: 0 to 100 scale (0 no effect, 100 complete control); for Plant response rating, Ragweed: Preemergence, 500 g ai/ha, visual rating after 10 days; for Ragweed plant response rating: Test C, preemergence, 125 g ai/ha
Procedure, shortened: as §1

ryegrass, Italian [8] = assay: Test C preemergence; type: in vivo, Lolium multiflorum; conditions: 0 to 100 scale (0 no effect, 100 complete control); for Plant response rating, Ryegrass, Italian: Preemergence, 500 g ai/ha, visual rating after 10 days; for Ryegrass, Italian plant response rating: Test C, preemergence, 125 g ai/ha
Procedure, shortened: as §1

soybean [9] = assay: Test C preemergence; type: in vivo, Glycine max; conditions: 0 to 100 scale (0 no effect, 100 complete control); for Plant response rating, Soybean: Preemergence, 500 g ai/ha, visual rating after 10 days; for Soybean plant response rating: Test C, preemergence, 125 g ai/ha
Procedure, shortened: as §1

wheat [10] = assay: Test C preemergence; type: in vivo, Triticum aestivum; conditions: 0 to 100 scale (0 no effect, 100 complete control); for Plant response rating, Wheat: Preemergence, 500 g ai/ha, visual rating after 10 days; for Wheat plant response rating: Test C, preemergence, 125 g ai/ha
Procedure, shortened: as §1

barnyardgrass [11] = assay: Test C postemergence; type: in vivo, Echinochloa crusgalli; conditions: 10 days
Procedure, shortened: as §1

blackgrass [12] = assay: Test C postemergence; type: in vivo, Alopecurus myosuroides; conditions: 10 days
Procedure, shortened: as §1

corn [13] = assay: Test C postemergence; type: in vivo, Zea mays; conditions: 10 days
Procedure, shortened: as §1

kochia [14] = assay: Test C postemergence; type: in vivo, Bassia scoparia; conditions: 10 days
Procedure, shortened: as §1

oat, wild [15] = assay: Test C postemergence; type: in vivo, Avena fatua; conditions: 10 days
Procedure, shortened: as §1

pigweed, palmer [16] = assay: Test C postemergence; type: in vivo, Amaranthus palmeri; conditions: 10 days
Procedure, shortened: as §1

ragweed [17] = assay: Test C postemergence; type: in vivo, Ambrosia artemisiifolia; conditions: 10 days
Procedure, shortened: as §1

ryegrass, Italian [18] = assay: Test C postemergence; type: in vivo, Lolium multiflorum; conditions: 10 days
Procedure, shortened: as §1

soybean [19] = assay: Test C postemergence; type: in vivo, Glycine max; conditions: 10 days
Procedure, shortened: as §1

wheat [20] = assay: Test C postemergence; type: in vivo, Triticum aestivum; conditions: 10 days
Procedure, shortened: as §1

galium = assay: Test C postemergence; type: in vivo, Galium aparine; conditions: 10 days
Procedure, shortened: as §1

horseweed = assay: Test C postemergence; type: in vivo, Erigeron canadensis; conditions: 10 days
Procedure, shortened: as §1

barnyardgrass [21] = assay: Test D flooded paddy test; type: in vivo, Echinochloa crus-galli; conditions: 250 g ai/ha, applied to paddy water, visual rating after 13 to 14 days, scale 0 to 100 (0 no effect, 100 complete control)
Protocol: (§2) Plant species in the flooded paddy test selected from barnyardgrass (Echinochloa crus-galli), ducksalad (Heteranthera limosa), rice (Oryza sativa), and sedge, umbrella (small-flower umbrella sedge, Cyperus difformis) were grown to the 2-leaf stage for testing. At time of treatment, test pots were flooded to 3 cm above the soil surface, treated by application of test compounds directly to the paddy water, and then maintained at that water depth for the duration of the test. Treated plants and controls were maintained in a greenhouse for 13 to 14 days, after which time all species were compared to controls and visually evaluated. Plant response ratings, summarized in Table D, are based on a scale of 0 to 100 where 0 is no effect and 100 is complete control. A dash (-) response means no test result.

ducksalad = assay: Test D flooded paddy test; type: in vivo, Heteranthera limosa; conditions: 250 g ai/ha, applied to paddy water, visual rating after 13 to 14 days, scale 0 to 100 (0 no effect, 100 complete control)
Protocol: as §2

rice = assay: Test D flooded paddy test; type: in vivo, Oryza sativa; conditions: 250 g ai/ha, applied to paddy water, visual rating after 13 to 14 days, scale 0 to 100 (0 no effect, 100 complete control)
Protocol: as §2

sedge, umbrella = assay: Test D flooded paddy test; type: in vivo, Cyperus difformis; conditions: 250 g ai/ha, applied to paddy water, visual rating after 13 to 14 days, scale 0 to 100 (0 no effect, 100 complete control)
Protocol: as §2

[22] = 125 g ai/ha, postemergence, 0 to 100 scale, 0 no effect, 100 complete control
[23] = Postemergence, 500 g ai/ha, visual 0 to 100 scale (0 no effect, 100 complete control)

COc1ccc(-n2cnc(C(C)(C)O)n2)cc1C(=O)N1C[C@H](C)Oc2c(Cl)cccc21 [Compound 254]
25: Plant response rating, Barnyardgrass (Flood) (barnyardgrass [21])
70: Barnyardgrass plant response rating (barnyardgrass [1]) | Wheat plant response rating (wheat [10]) | Plant response rating, Ryegrass, Italian (ryegrass, Italian [18]; [22])
40: Blackgrass plant response rating (blackgrass [2])
98: Plant response rating, Ducksalad (Flood) (ducksalad) | Plant response rating, Sedge, Umbrella (Flood) (sedge, umbrella)
100: Plant response rating, Barnyardgrass (barnyardgrass [1]) | Plant response rating, Foxtail, Green (green foxtail) | Foxtail, Green plant response rating (green foxtail) | Plant response rating, Pigweed, Palmer (pigweed, palmer [6]) | Pigweed, Palmer plant response rating (pigweed, palmer [6]) | Plant response rating, Soybean (soybean [9]) | Soybean plant response rating (soybean [9]) | Plant response rating, Pigweed, Palmer (pigweed, palmer [16]; [23]) | Plant response rating, Ragweed (ragweed [17]; [23]) | Plant response rating, Soybean (soybean [19]; [22]) | Plant response rating, Soybean (soybean [19]; [23]) | Plant response rating, Galium (galium; [22]) | Plant response rating, Galium (galium; [23])
90: Plant response rating, Kochia (kochia [4]) | Kochia plant response rating (kochia [4]) | Plant response rating, Oat, Wild (oat, wild [5]) | Oat, Wild plant response rating (oat, wild [5]) | Plant response rating, Ragweed (ragweed [7]) | Plant response rating, Ryegrass, Italian (ryegrass, Italian [8]) | Ryegrass, Italian plant response rating (ryegrass, Italian [8]) | Plant response rating, Wheat (wheat [10]) | Plant response rating, Blackgrass (blackgrass [12]; [23]) | Plant response rating, Corn (corn [13]; [23]) | Plant response rating, Kochia (kochia [14]; [23]) | Plant response rating, Oat, Wild (oat, wild [15]; [23]) | Plant response rating, Pigweed, Palmer (pigweed, palmer [16]; [22]) | Plant response rating, Ragweed (ragweed [17]; [22])
20: Plant response rating, Horseweed (horseweed; [23]) | Plant response rating, Rice (Flood) (rice)
30: Plant response rating, Horseweed (horseweed; [22])
50: Plant response rating, Corn (corn [3]) | Corn plant response rating (corn [3]) | Plant response rating, Barnyardgrass (barnyardgrass [11]; [22]) | Plant response rating, Wheat (wheat [20]; [22])
80: Plant response rating, Blackgrass (blackgrass [2]) | Ragweed plant response rating (ragweed [7]) | Plant response rating, Barnyardgrass (barnyardgrass [11]; [23]) | Plant response rating, Blackgrass (blackgrass [12]; [22]) | Plant response rating, Corn (corn [13]; [22]) | Plant response rating, Kochia (kochia [14]; [22]) | Plant response rating, Oat, Wild (oat, wild [15]; [22]) | Plant response rating, Ryegrass, Italian (ryegrass, Italian [18]; [23]) | Plant response rating, Wheat (wheat [20]; [23])

Cc1ccc(-n2cnc(C3(C)CC3)n2)cc1C(=O)N1C[C@H](C)Oc2c(Cl)cccc21 [Compound 252]
20: Plant response rating, Blackgrass (blackgrass [2]) | Oat, Wild plant response rating (oat, wild [5]) | Soybean plant response rating (soybean [9]) | Plant response rating, Wheat (wheat [20]; [22]) | Plant response rating, Horseweed (horseweed; [22])
30: Plant response rating, Ragweed (ragweed [7]) | Plant response rating, Wheat (wheat [20]; [23])
80: Barnyardgrass plant response rating (barnyardgrass [1]) | Plant response rating, Ryegrass, Italian (ryegrass, Italian [8]) | Plant response rating, Soybean (soybean [9]) | Plant response rating, Barnyardgrass (barnyardgrass [11]; [23]) | Plant response rating, Blackgrass (blackgrass [12]; [22]) | Plant response rating, Blackgrass (blackgrass [12]; [23]) | Plant response rating, Corn (corn [13]; [23]) | Plant response rating, Ragweed (ragweed [17]; [23]) | Plant response rating, Ryegrass, Italian (ryegrass, Italian [18]; [22]) | Plant response rating, Ryegrass, Italian (ryegrass, Italian [18]; [23])
100: Plant response rating, Foxtail, Green (green foxtail) | Foxtail, Green plant response rating (green foxtail) | Plant response rating, Kochia (kochia [4]) | Kochia plant response rating (kochia [4]) | Plant response rating, Pigweed, Palmer (pigweed, palmer [6]) | Pigweed, Palmer plant response rating (pigweed, palmer [6]) | Plant response rating, Kochia (kochia [14]; [23]) | Plant response rating, Pigweed, Palmer (pigweed, palmer [16]; [23]) | Plant response rating, Soybean (soybean [19]; [22]) | Plant response rating, Soybean (soybean [19]; [23]) | Plant response rating, Galium (galium; [22]) | Plant response rating, Galium (galium; [23])
10: Plant response rating, Wheat (wheat [10]) | Plant response rating, Oat, Wild (oat, wild [15]; [22]) | Plant response rating, Oat, Wild (oat, wild [15]; [23])
70: Plant response rating, Oat, Wild (oat, wild [5]) | Plant response rating, Ragweed (ragweed [17]; [22])
0: Blackgrass plant response rating (blackgrass [2]) | Plant response rating, Corn (corn [3]) | Corn plant response rating (corn [3]) | Ragweed plant response rating (ragweed [7]) | Wheat plant response rating (wheat [10]) | Plant response rating, Rice (Flood) (rice)
60: Ryegrass, Italian plant response rating (ryegrass, Italian [8]) | Plant response rating, Barnyardgrass (barnyardgrass [11]; [22]) | Plant response rating, Corn (corn [13]; [22])
15: Plant response rating, Ducksalad (Flood) (ducksalad) | Plant response rating, Sedge, Umbrella (Flood) (sedge, umbrella)
50: Plant response rating, Horseweed (horseweed; [23])
90: Plant response rating, Barnyardgrass (barnyardgrass [1]) | Plant response rating, Kochia (kochia [14]; [22]) | Plant response rating, Pigweed, Palmer (pigweed, palmer [16]; [22])
35: Plant response rating, Barnyardgrass (Flood) (barnyardgrass [21])
